Results on 19 compounds are retold here after ChEMBL document CHEMBL1144249, “Identification of a novel class of androgen receptor antagonists based on the bicyclic-1H-isoindole-1,3(2H)-dione nucleus” (Bioorg Med Chem Lett, 2005).

A value given as a limit tells only on which side of the number the result lay.

The target of assay [1] is T1, Androgen receptor (Homo sapiens, UniProt P10275, T878A).
Description: Inhibition of T877A androgen receptor of human prostate cancer cells in reporter gene assay
Assay [2] concerns the target T1, Androgen receptor. Kind of assay: Inhibition of [3H]-DHT binding to T877A androgen receptor of LNCaP cells.
Assay [3] concerns the target T2, Androgen receptor (Homo sapiens, UniProt P10275).
T2 sequence (P10275 whole entry): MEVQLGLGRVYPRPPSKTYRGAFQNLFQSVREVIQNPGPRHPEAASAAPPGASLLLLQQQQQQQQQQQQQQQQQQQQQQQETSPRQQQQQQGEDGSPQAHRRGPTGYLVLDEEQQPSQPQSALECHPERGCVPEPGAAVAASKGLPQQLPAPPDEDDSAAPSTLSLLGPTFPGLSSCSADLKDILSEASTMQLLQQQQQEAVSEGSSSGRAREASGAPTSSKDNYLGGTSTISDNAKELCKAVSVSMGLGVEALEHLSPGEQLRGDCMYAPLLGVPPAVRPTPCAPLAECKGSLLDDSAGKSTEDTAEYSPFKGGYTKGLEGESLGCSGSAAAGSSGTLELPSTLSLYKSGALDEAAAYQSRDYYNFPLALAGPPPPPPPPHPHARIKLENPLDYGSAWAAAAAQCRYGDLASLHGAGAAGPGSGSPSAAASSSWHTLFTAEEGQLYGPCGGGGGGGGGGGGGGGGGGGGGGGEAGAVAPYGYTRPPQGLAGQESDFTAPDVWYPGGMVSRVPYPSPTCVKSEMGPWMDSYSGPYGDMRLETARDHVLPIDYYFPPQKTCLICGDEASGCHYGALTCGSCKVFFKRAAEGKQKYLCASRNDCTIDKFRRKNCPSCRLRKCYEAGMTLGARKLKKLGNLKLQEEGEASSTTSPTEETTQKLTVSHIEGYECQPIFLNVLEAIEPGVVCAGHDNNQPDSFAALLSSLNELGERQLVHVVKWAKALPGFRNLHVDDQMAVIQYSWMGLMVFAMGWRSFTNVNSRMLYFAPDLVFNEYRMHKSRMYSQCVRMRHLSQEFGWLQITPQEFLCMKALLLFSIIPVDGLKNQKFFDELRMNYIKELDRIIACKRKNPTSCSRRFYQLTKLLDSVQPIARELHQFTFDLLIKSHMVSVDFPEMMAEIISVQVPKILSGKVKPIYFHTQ
Description: Inhibition of human androgen receptor of breast carcinoma MDA-453 cells in reporter gene assay

Assay [4] addresses T2, Androgen receptor. Briefly: Inhibition of [3H]DHT binding to androgen receptor of MDA-453 cells.
In assay [5] the target is Androgen receptor (Homo sapiens, UniProt P10275, L702H/T878A). It is filed as functional, cell-based. The settings on record: mdamb-pca2b.
Sequence of Androgen receptor (Homo sapiens, UniProt P10275, L702H/T878A) (P10275 whole entry L702H/T878A): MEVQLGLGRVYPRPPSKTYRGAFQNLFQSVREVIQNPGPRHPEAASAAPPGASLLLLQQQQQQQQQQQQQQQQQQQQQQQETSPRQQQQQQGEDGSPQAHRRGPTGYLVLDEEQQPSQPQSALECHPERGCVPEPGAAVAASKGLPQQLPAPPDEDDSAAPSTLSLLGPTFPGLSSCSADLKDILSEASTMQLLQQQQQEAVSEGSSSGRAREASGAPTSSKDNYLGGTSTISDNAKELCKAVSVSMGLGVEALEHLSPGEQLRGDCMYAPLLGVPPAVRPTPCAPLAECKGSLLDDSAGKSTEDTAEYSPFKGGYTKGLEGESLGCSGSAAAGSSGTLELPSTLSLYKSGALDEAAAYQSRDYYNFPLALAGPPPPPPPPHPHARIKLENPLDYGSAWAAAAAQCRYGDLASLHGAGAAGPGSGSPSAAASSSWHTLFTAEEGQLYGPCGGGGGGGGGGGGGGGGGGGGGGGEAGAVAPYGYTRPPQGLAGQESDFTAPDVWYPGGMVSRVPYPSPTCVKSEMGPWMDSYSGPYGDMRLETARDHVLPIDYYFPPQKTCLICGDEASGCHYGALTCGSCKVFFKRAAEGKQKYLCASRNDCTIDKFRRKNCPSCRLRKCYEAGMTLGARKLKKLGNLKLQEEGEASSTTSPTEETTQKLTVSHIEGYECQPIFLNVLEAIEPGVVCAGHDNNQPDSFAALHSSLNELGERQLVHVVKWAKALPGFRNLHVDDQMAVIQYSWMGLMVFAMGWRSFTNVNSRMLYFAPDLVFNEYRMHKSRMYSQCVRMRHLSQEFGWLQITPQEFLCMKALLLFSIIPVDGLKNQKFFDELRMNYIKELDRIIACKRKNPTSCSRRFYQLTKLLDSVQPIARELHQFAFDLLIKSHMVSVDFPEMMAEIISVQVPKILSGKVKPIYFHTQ
Assay [6] has as its target T1, Androgen receptor. Kind of assay: Activation of T877A androgen receptor of human prostate cancer LNCap cells in reporter gene assay. The format is functional, cell-based. For orientation: Reporter assays use an easily measured gene product as a stand-in for the process of interest.

T1 sequence (P10275 whole entry T878A): as the sequence (P10275 whole entry L702H/T878A) above, with H702L counted along it

As a reminder, the IC50 is the concentration at which inhibition is half-maximal. A low value points to greater potency. Usually Ki stands for the dissociation constant of the complex between target and ligand, obtained from inhibition or displacement. For the compound `O=C1[C@@H]2C3C=CC(C3)[C@@H]2C(=O)N1c1ccc2ccccc2c1`, the 50% inhibitory concentration (IC50) against Androgen receptor [1] was determined as 84 nM; on Androgen receptor [3], 1210 nM. Also, the inhibition constant (Ki) on Androgen receptor [2] was found to be 11 nM; on Androgen receptor [4], 284 nM.
As for `O=C1[C@@H]2C3CCC(C3)[C@@H]2C(=O)N1c1ccc([N+](=O)[O-])c(C(F)(F)F)c1` (stereo in doubt; 15), the half-inhibitory concentration (IC50) entry at Androgen receptor [5] was “Agonist”; against Androgen receptor [3] it was 12 nM. Further, the figures for the Ki at Androgen receptor [2] and at Androgen receptor [4] were 2 nM and 5 nM, respectively. The “Agonist activity (qualitative)” value at Androgen receptor [6] is listed as “Agonist”.
`Cc1ccc(N2C(=O)[C@@H]3C4C=CC(C4)[C@@H]3C2=O)cc1C`: the IC50 against Androgen receptor [1] worked out at 10 nM; at Androgen receptor [3] it was 2010 nM. Also, the results for the inhibition constant (Ki) on Androgen receptor [2] and on Androgen receptor [4] were 3.4 nM and 400 nM, respectively.
In the case of `O=C1[C@@H]2C3C=CC(C3)[C@@H]2C(=O)N1c1ccc([N+](=O)[O-])c(C(F)(F)F)c1`, the concentration for half-maximal inhibition (IC50) result on Androgen receptor [5] is “Agonist”; at Androgen receptor [3] it was 119 nM. Further, the inhibition constant (Ki) on Androgen receptor [2] amounted to 5 nM; at Androgen receptor [4], 55 nM. For the same compound, the “Agonist activity (qualitative)” value at Androgen receptor [6] was “Agonist”.
As for `O=C1[C@@H]2C3CCC(C3)[C@@H]2C(=O)N1c1cccc(C(F)(F)F)c1` (stereo in doubt; 12), the figures for the IC50 on Androgen receptor [1] and at Androgen receptor [3] were 7 nM and 127 nM, respectively. Further, the Ki was 3.4 nM on Androgen receptor [2] and 319 nM at Androgen receptor [4].
As to `O=C1[C@@H]2C3C=CC(C3)[C@@H]2C(=O)N1c1cc(Cl)cc(Cl)c1`, the IC50 against Androgen receptor [1] came to 41 nM; at Androgen receptor [3] it was 307 nM. The inhibitory constant (Ki) at Androgen receptor [2] amounted to 6 nM; at Androgen receptor [4] it was 158 nM.
Regarding `O=C1[C@@H]2C3C=CC(C3)[C@@H]2C(=O)N1c1ccc2cccnc2c1`, the IC50 on Androgen receptor [1] was determined as 52 nM; against Androgen receptor [3], 1040 nM. The compound also came in with an inhibitory constant (Ki) at Androgen receptor [2] of 13 nM.
As for `O=C1[C@@H]2C3C=CC(C3)[C@@H]2C(=O)N1c1cc(C(F)(F)F)cc(C(F)(F)F)c1`, the IC50 at Androgen receptor [1] amounted to 72 nM; against Androgen receptor [3], 1750 nM. The figures for the inhibition constant (Ki) at Androgen receptor [2] and on Androgen receptor [4] were 24 nM and 401 nM, respectively.
As to `O=C1[C@@H]2C3C=CC(C3)[C@@H]2C(=O)N1c1ccc(Br)c(C(F)(F)F)c1`, the concentration for half-maximal inhibition (IC50) entry on Androgen receptor [5] was “Agonist”; on Androgen receptor [3], 146 nM. Moreover, the values for the inhibitory constant (Ki) at Androgen receptor [2] and on Androgen receptor [4] were 0.6 nM and 46 nM, respectively. In addition, the “Agonist activity (qualitative)” value on Androgen receptor [6] is reported as “Agonist”.
In the case of `O=C1[C@@H]2C3C=CC(C3)[C@@H]2C(=O)N1c1ccc(F)c(Cl)c1`, the IC50 against Androgen receptor [1] was 33 nM; against Androgen receptor [3] it was 517 nM. The compound further had a Ki on Androgen receptor [2] of 2 nM.
For `CC(C)(O)C(=O)Nc1ccc([N+](=O)[O-])c(C(F)(F)F)c1` [HYDROXYFLUTAMIDE], the IC50 entry on Androgen receptor [5] and on Androgen receptor [6] was “Agonist” in each case.
Turning to `O=C1[C@@H]2C3C=CC(C3)[C@@H]2C(=O)N1c1ccc([N+](=O)[O-])c2ccccc12`, the half-maximal inhibitory concentration (IC50) entry against Androgen receptor [5] was “Agonist”; against Androgen receptor [3] it was over 5 nM. Further, the Ki on Androgen receptor [2] is 0.5 nM; on Androgen receptor [4], 1 nM. Further, on Androgen receptor [6], the “Agonist activity (qualitative)” value was “Agonist”.
As for `O=C1[C@@H]2C3CCC(C3)[C@@H]2C(=O)N1c1cccc(C(F)(F)F)c1` (stereo in doubt; 13), the values for the half-maximal inhibitory concentration (IC50) at Androgen receptor [1] and at Androgen receptor [3] were 12 nM and 317 nM, respectively. Moreover, the Ki at Androgen receptor [2] was 2 nM.
Consider `O=C1[C@@H]2C3C=CC(C3)[C@@H]2C(=O)N1c1cccc(C(F)(F)F)c1`, for which the concentration for half-maximal inhibition (IC50) at Androgen receptor [1] was 35 nM; against Androgen receptor [3], 744 nM. Besides, the inhibition constant (Ki) at Androgen receptor [2] is 7 nM; at Androgen receptor [4], 632 nM.
On the same counts, the results for `O=C1[C@@H]2C3C=CC(C3)[C@@H]2C(=O)N1c1ccc(O)c2ncccc12` are 1790 nM, 418 nM, 32 nM and 162 nM.
`O=C1[C@@H]2C3CCC(C3)[C@@H]2C(=O)N1c1ccc([N+](=O)[O-])c(C(F)(F)F)c1` (stereo in doubt; 16) gave a Ki at Androgen receptor [2] (lncap) of 2 nM. That is a single-digit nanomolar value.
On to `Cc1cc(N2C(=O)[C@@H]3C4C=CC(C4)[C@@H]3C2=O)ccc1Br`, for which the IC50 entry is “Agonist” against Androgen receptor [5] and 220 nM against Androgen receptor [3]. The Ki on Androgen receptor [2] came out at 3.6 nM; at Androgen receptor [4], 125 nM. Also, at Androgen receptor [6], the “Agonist activity (qualitative)” value is listed as “Agonist”.
With `O=C1[C@@H]2C3C=CC(C3)[C@@H]2C(=O)N1c1ccc([N+](=O)[O-])cc1`, the results for the concentration for half-maximal inhibition (IC50) against Androgen receptor [1] and against Androgen receptor [3] were 30 nM and 664 nM, respectively. Further, the values for the Ki on Androgen receptor [2] and on Androgen receptor [4] were 12 nM and 192 nM, respectively.
`O=C1[C@@H]2C3CCC(C3)[C@@H]2C(=O)N1c1ccc2ccccc2c1`: the concentration for half-maximal inhibition (IC50) at Androgen receptor [1] is 84 nM; on Androgen receptor [3], 1200 nM. At Androgen receptor [2], this compound registered a Ki of 11 nM.
